Paper PMC7438494 (Communications Biology, 2020)
Like-named read-outs stand apart in the source and are kept apart here.

Biological target: human ATP synthase (Homo sapiens, UniProt P00846+P05496)
Test: biochemical
Format: biochemical
Conditions: Human Mito
[1] = 3rd exp (12-20-18), BDQ in DMSO, Bedaquiline 0.05 μM, 60 min
[2] = 4th exp (12-12-28), repeated point, Bedaquiline 5e-6 μM, 60 min
[3] = 4th exp (12-12-28), repeated point, Bedaquiline 5e-5 μM, 60 min

SMILES: COc1nc2ccc(Br)cc2cc1[C@@H](c1ccccc1)[C@@](O)(CCN(C)C)c1cccc2ccccc12 [BDQ, Bedaquiline]
- Cyanide sensitive (2nd exp (12-17-18), Bedaquiline 0.2 μM, 60 min): 5.1889 nmol/min/mg
- activity at 0.2 µM (2nd exp (12-17-18), Bedaquiline 0.2 μM, 60 min, read-out: % activity): 59.9%
- Cyanide sensitive (2nd exp (12-17-18), Bedaquiline 0.5 μM, 60 min): 5.024 nmol/min/mg
- activity at 0.5 µM (2nd exp (12-17-18), Bedaquiline 0.5 μM, 60 min, read-out: % activity): 58%
- Cyanide sensitive (2nd exp (12-17-18), Bedaquiline 0.65 μM, 60 min): 2.666 nmol/min/mg
- activity at 0.65 µM (2nd exp (12-17-18), Bedaquiline 0.65 μM, 60 min, read-out: % activity): 30.8%
- Cyanide sensitive (2nd exp (12-17-18), Bedaquiline 0.85 μM, 60 min): 2.868 nmol/min/mg
- activity at 0.85 µM (2nd exp (12-17-18), Bedaquiline 0.85 μM, 60 min, read-out: % activity): 33.1%
- Cyanide sensitive (2nd exp (12-17-18), Bedaquiline 2 μM, 60 min): 0.0982 nmol/min/mg
- activity at 2 µM (2nd exp (12-17-18), Bedaquiline 2 μM, 60 min, read-out: % activity): 1.13%
- Cyanide sensitive (2nd exp (12-17-18), Bedaquiline 5 μM, 60 min): -0.8746 nmol/min/mg
- activity at 5 µM (2nd exp (12-17-18), Bedaquiline 5 μM, 60 min, read-out: % activity): -10.1%
- activity at 0.005 µM (2 nd exp (18_12_17), BDQ 0.005 uM, read-out: Cyanide sensitive % activity): 43.8%
- activity at 0.1 µM (2 nd exp (18_12_17), BDQ 0.1 uM, read-out: Cyanide sensitive % activity): 62%
- activity at 0.2 µM (2 nd exp (18_12_17), BDQ 0.2 uM, read-out: Cyanide sensitive % activity): 59.9%
- activity at 0.5 µM (2 nd exp (18_12_17), BDQ 0.5 uM, read-out: Cyanide sensitive % activity): 58%
- activity at 0.65 µM (2 nd exp (18_12_17), BDQ 0.65 uM, read-out: Cyanide sensitive % activity): 30.8%
- activity at 0.85 µM (2 nd exp (18_12_17), BDQ 0.85 uM, read-out: Cyanide sensitive % activity): 33.1%
- activity at 2 µM (2 nd exp (18_12_17), BDQ 2 uM, read-out: Cyanide sensitive % activity): 1.13%
- Cyanide sensitive (3rd exp (12-20-18), BDQ in DMSO, Bedaquiline 0.0005 μM, 60 min): 7.6746 nmol/min/mg
- activity at 0.0005 µM (3rd exp (12-20-18), BDQ in DMSO, Bedaquiline 0.0005 μM, 60 min, read-out: % activity): 81.5%
- Cyanide sensitive (3rd exp (12-20-18), BDQ in DMSO, Bedaquiline 0.005 μM, 60 min): 8.333 nmol/min/mg
- activity at 0.005 µM (3rd exp (12-20-18), BDQ in DMSO, Bedaquiline 0.005 μM, 60 min, read-out: % activity): 88.5%
- Cyanide sensitive [1]: 6.758 nmol/min/mg
- activity at 0.05 µM [1]: 71.8%
- Cyanide sensitive (3rd exp (12-20-18), BDQ in DMSO, Bedaquiline 0.1 μM, 60 min): 8.103 nmol/min/mg
- activity at 0.1 µM (3rd exp (12-20-18), BDQ in DMSO, Bedaquiline 0.1 μM, 60 min, read-out: % activity): 86%
- Cyanide sensitive (3rd exp (12-20-18), BDQ in DMSO, Bedaquiline 0.2 μM, 60 min): 5.599 nmol/min/mg
- activity at 0.2 µM (3rd exp (12-20-18), BDQ in DMSO, Bedaquiline 0.2 μM, 60 min, read-out: % activity): 59.5%
- Cyanide sensitive (3rd exp (12-20-18), BDQ in DMSO, Bedaquiline 0.5 μM, 60 min): 3.146 nmol/min/mg
- activity at 0.5 µM (3rd exp (12-20-18), BDQ in DMSO, Bedaquiline 0.5 μM, 60 min, read-out: % activity): 33.4%
- Cyanide sensitive (3rd exp (12-20-18), BDQ in DMSO, Bedaquiline 0.65 μM, 60 min): 3.762 nmol/min/mg
- activity at 0.65 µM (3rd exp (12-20-18), BDQ in DMSO, Bedaquiline 0.65 μM, 60 min, read-out: % activity): 40%
- Cyanide sensitive (3rd exp (12-20-18), BDQ in DMSO, Bedaquiline 0.85 μM, 60 min): 3.062 nmol/min/mg
- activity at 0.85 µM (3rd exp (12-20-18), BDQ in DMSO, Bedaquiline 0.85 μM, 60 min, read-out: % activity): 32.5%
- Cyanide sensitive (3rd exp (12-20-18), BDQ in DMSO, Bedaquiline 1 μM, 60 min): -0.07798 nmol/min/mg
- activity at 1 µM (3rd exp (12-20-18), BDQ in DMSO, Bedaquiline 1 μM, 60 min, read-out: % activity): -0.828%
- Cyanide sensitive (3rd exp (12-20-18), BDQ in DMSO, Bedaquiline 2 μM, 60 min): 0.1555 nmol/min/mg
- activity at 2 µM (3rd exp (12-20-18), BDQ in DMSO, Bedaquiline 2 μM, 60 min, read-out: % activity): 1.65%
- Cyanide sensitive (3rd exp (12-20-18), BDQ in DMSO, Bedaquiline 5 μM, 60 min): -0.3777 nmol/min/mg
- activity at 5 µM (3rd exp (12-20-18), BDQ in DMSO, Bedaquiline 5 μM, 60 min, read-out: % activity): -4.01%
- activity at 0.0005 µM (3rd exp (18_12_20), BDQ 0.0005 uM, read-out: Cyanide sensitive % activity): 81.5%
- activity at 0.005 µM (3rd exp (18_12_20), BDQ 0.005 uM, read-out: Cyanide sensitive % activity): 88.5%
- activity at 0.2 µM (3rd exp (18_12_20), BDQ 0.2 uM, read-out: Cyanide sensitive % activity): 59.5%
- activity at 0.5 µM (3rd exp (18_12_20), BDQ 0.5 uM, read-out: Cyanide sensitive % activity): 33.4%
- activity at 0.65 µM (3rd exp (18_12_20), BDQ 0.65 uM, read-out: Cyanide sensitive % activity): 40%
- activity at 0.85 µM (3rd exp (18_12_20), BDQ 0.85 uM, read-out: Cyanide sensitive % activity): 32.5%
- activity at 1 µM (3rd exp (18_12_20), BDQ 1 uM, read-out: Cyanide sensitive % activity): -0.84%
- activity at 2 µM (3rd exp (18_12_20), BDQ 2 uM, read-out: Cyanide sensitive % activity): 1.68%
- activity at 5 µM (3rd exp (18_12_20), BDQ 5 uM, read-out: Cyanide sensitive % activity): -4.13%
- Cyanide sensitive (4th exp (12-12-28), BDQ in DMSO, Bedaquiline 5e-6 μM, 60 min): 6.055 nmol/min/mg
- Cyanide sensitive (4th exp (12-12-28), BDQ in DMSO, Bedaquiline 5e-5 μM, 60 min): 5.641 nmol/min/mg
- Cyanide sensitive (4th exp (12-12-28), BDQ in DMSO, Bedaquiline 0.0005 μM, 60 min): 4.664 nmol/min/mg
- activity at 0.0005 µM (4th exp (12-12-28), BDQ in DMSO, Bedaquiline 0.0005 μM, 60 min, read-out: % activity): 52.7%
- Cyanide sensitive (4th exp (12-12-28), BDQ in DMSO, Bedaquiline 0.005 μM, 60 min): 4.551 nmol/min/mg
- activity at 0.005 µM (4th exp (12-12-28), BDQ in DMSO, Bedaquiline 0.005 μM, 60 min, read-out: % activity): 51.4%
- Cyanide sensitive (4th exp (12-12-28), BDQ in DMSO, Bedaquiline 0.1 μM, 60 min): 6.3 nmol/min/mg
- activity at 0.1 µM (4th exp (12-12-28), BDQ in DMSO, Bedaquiline 0.1 μM, 60 min, read-out: % activity): 71.2%
- Cyanide sensitive (4th exp (12-12-28), BDQ in DMSO, Bedaquiline 0.2 μM, 60 min): 4.408 nmol/min/mg
- activity at 0.2 µM (4th exp (12-12-28), BDQ in DMSO, Bedaquiline 0.2 μM, 60 min, read-out: % activity): 49.8%
- Cyanide sensitive (4th exp (12-12-28), BDQ in DMSO, Bedaquiline 0.5 μM, 60 min): 4.526 nmol/min/mg
- activity at 0.5 µM (4th exp (12-12-28), BDQ in DMSO, Bedaquiline 0.5 μM, 60 min, read-out: % activity): 51.2%
- Cyanide sensitive (4th exp (12-12-28), BDQ in DMSO, Bedaquiline 0.65 μM, 60 min): 3.3225 nmol/min/mg
- activity at 0.65 µM (4th exp (12-12-28), BDQ in DMSO, Bedaquiline 0.65 μM, 60 min, read-out: % activity): 37.6%
- Cyanide sensitive (4th exp (12-12-28), BDQ in DMSO, Bedaquiline 1 μM, 60 min): 0.7592 nmol/min/mg
- activity at 1 µM (4th exp (12-12-28), BDQ in DMSO, Bedaquiline 1 μM, 60 min, read-out: % activity): 8.58%
- Cyanide sensitive (4th exp (12-12-28), BDQ in DMSO, Bedaquiline 2 μM, 60 min): 0.2448 nmol/min/mg
- activity at 2 µM (4th exp (12-12-28), BDQ in DMSO, Bedaquiline 2 μM, 60 min, read-out: % activity): 2.77%
- Cyanide sensitive (4th exp (12-12-28), BDQ in DMSO, Bedaquiline 5 μM, 60 min): -0.2191 nmol/min/mg
- activity at 5 µM (4th exp (12-12-28), BDQ in DMSO, Bedaquiline 5 μM, 60 min, read-out: % activity): -2.48%
- Cyanide sensitive (4th exp (12-12-28), BDQ in DMSO, Bedaquiline 10 μM, 60 min): -0.1822 nmol/min/mg
- activity at 10 µM (4th exp (12-12-28), BDQ in DMSO, Bedaquiline 10 μM, 60 min, read-out: % activity): -2.06%
- Repeted points [2]: 6.965 nmol/min/mg
- Repeted points % activity [2]: 78.7332%
- Repeted points [3]: 6.5997 nmol/min/mg
- Repeted points % activity [3]: 74.6041%
- Repeted points (4th exp (12-12-28), repeated point, Bedaquiline 1 μM, 60 min): 0.7668 nmol/min/mg
- activity at 1 µM (4th exp (12-12-28), repeated point, Bedaquiline 1 μM, 60 min, read-out: Repeted points % activity): 8.67%
- activity at 10 µM (4th exp (18_12_26) duplicate, BDQ 10 uM, read-out: Cyanide sensitive % activity): -2.1%
- activity at 0.1 µM (4th exp (18_12_26), BDQ 0.1 uM, read-out: Cyanide sensitive % activity): 71.2%
- activity at 0.2 µM (4th exp (18_12_26), BDQ 0.2 uM, read-out: Cyanide sensitive % activity): 49.8%
- activity at 0.5 µM (4th exp (18_12_26), BDQ 0.5 uM, read-out: Cyanide sensitive % activity): 51.2%
- activity at 0.65 µM (4th exp (18_12_26), BDQ 0.65 uM, read-out: Cyanide sensitive % activity): 37.6%
